This passage reports solubility and inhibition results from patent US9540351B2, “Pharmaceutically acceptable salts of 3,5-diaminopyrazole kinase inhibitors” (AXIKIN PHARMACEUTICALS, INC., priority 2013, dated 2017).

Data set [1] in a line: Solubility assessment of salts in water. Particulars: thermodynamic from solid, read-out: Aqueous Solubility. Format: physicochemical. Here is the method:
Solubility assessment: A preweighed amount of powder of a salt was treated with water to target a nominal concentration of 10 mg/mL. If a clear solution was obtained, then the solubility was noted as ≧10 mg/mL. If a suspension was obtained, additional water was added to target a nominal concentration of 5 mg/mL. If still a suspension after the addition of water, additional water was added to target a lower nominal concentration. If a suspension was still observed at a nominal concentration of 0.1 mg/mL, the suspension was filtered through a 0.4 micron filter, and the filtrate was analyzed by RP-HPLC to ascertain the solubility range of the salt.

Data set [2] deals with T1, kinase domain protein of RC kinase (Homo sapiens, UniProt Q56UN5).
T1 sequence (Q56UN5 1061-1324 limits assumed): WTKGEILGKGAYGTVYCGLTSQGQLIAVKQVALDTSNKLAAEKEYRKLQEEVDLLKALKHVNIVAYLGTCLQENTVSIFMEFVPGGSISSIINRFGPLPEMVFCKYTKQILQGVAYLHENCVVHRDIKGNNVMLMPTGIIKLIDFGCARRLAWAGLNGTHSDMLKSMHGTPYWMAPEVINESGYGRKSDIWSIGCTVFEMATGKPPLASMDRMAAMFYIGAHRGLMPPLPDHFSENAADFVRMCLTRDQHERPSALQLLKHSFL
Kind of data set: Enzymatic assay for kinase inhibitory activity (Crebtide substrate, Lance readout). The format is biochemical. Particulars: free base compounds, inhibition of RC kinase activity at 1 μM. Here is the method:
Solutions of a test compound, Crebtide (a substrate), a kinase, and ATP were prepared using 1×MAPK Buffer (50 mM HEPES, 1 mM EGTA, […], 10 mM MgCl2, 2 mM DTT, and 0.01% Tween 20).
To each well, the test compound (1 μL) was first added (in duplicate) to reach a final concentration of 1 μM or 1×IC50 of the compound. The kinase (5 μL) was then added to each well to reach a final concentration of […] for the kinase domain or […] for the full-length domain. Each plate included a positive and negative controls in duplicate wells. Crebtide (2.5 μL) was then added to each well in duplicate to reach a final concentration of 50 nM. If the full-length kinase was used, the plates were incubated for 45 min at room temperature before proceeding further. ATP (2.5 μL) was added to each well to reach a final concentration of 1 μM for the kinase domain and 3 μM for the full-length.
After the addition of ATP, the plates were incubated for 45 min at room temperature. During the incubation, an EDTA solution (40 mM) and anti-Crebtide ([…]) were prepared. Additionally, a detection buffer stock solution was diluted ten fold before use.
After the incubation, the anti-Crebtide (5 μL) and EDTA (5 μL) were added to each well to reach their final concentrations of […] and 10 mM, respectively. The plates were allowed to develop at room temperature for 45 min. The plates were then read at 665 nm and 615 nm using Perkin Elmer Lance machine.
As will be appreciated by those skilled in the are, the activity of a particular salt provided herein will be the same as the activity for the parent free-base compound.

The structures appear in SMILES notation. Where two headings read alike, the source gives them in different places.

The solubility is the concentration that dissolves in the medium under given conditions. In general, inhibition refers to how much of the control response was suppressed. With `CN1CCN(c2ccc(NC3N=NC(NCc4ccc(O)cc4)=C3C(N)=O)cc2)CC1` (stereo not drawn) [Compound 2, 5-((4-hydroxybenzyl)amino)-3-((4-(4-methylpiperazin-1-yl)phenyl)amino)-3H-pyrazole-4-carboxamide], the solubility in data set [1] (Free base) is under 40 µg/mL; in data set [1] (HCl salt), over 1000 µg/mL. In addition, the inhibition at 1 µM in data set [2] is at least 50%.

As to `CC(C)N1CCN(c2ccc(Nc3n[nH]c(NCc4ccc(O)cc4)c3C(N)=O)cc2)CC1` [Compound 7, 5-((4-hydroxybenzyl)amino)-3-((4-(4-isopropylpiperazin-1-yl)phenyl)amino)-3H-pyrazole-4-carboxamide], the solubility in data set [1] (Free base) was under 40 µg/mL; in data set [1] (HCl salt) it was over 500 µg/mL; in data set [1] (Phosphoric acid salt), over 1000 µg/mL. The inhibition at 1 µM in data set [2] was at least 50%.

Take `NC(=O)C1=C(NCc2ccc(O)cc2)N=NC1Nc1ccc(-c2ccccn2)cc1` (stereo not drawn) [Compound 6, 5-((4-hydroxybenzyl)amino)-3-((4-(pyridin-2-yl)phenyl)amino)-3H-pyrazole-4-carboxamide]: the solubility in data set [1] (Free base) was under 100 µg/mL; in data set [1] (Phosphoric acid salt), over 20000 µg/mL; in data set [1] (Sulfuric acid salt) it was under 500 µg/mL; in data set [1] (Trifluoroacetic acid salt), under 500 µg/mL; in data set [1] (camphorsulfonic acid salt) it was under 500 µg/mL; in data set [1] (p-toluenesulfonic acid salt), under 200 µg/mL. Also, the solubility in data set [1] (tartaric acid salt) is under 200 µg/mL. This compound returned an inhibition at 1 µM in data set [2] of at least 50%.

For `NC(=O)c1c(Nc2ccc(N3CCOCC3)cc2)n[nH]c1NCc1ccc(O)cc1` [Compound 4, 5-((4-hydroxybenzyl)amino)-3-((4-morpholinophenyl)amino)-3H-pyrazole-4-carboxamide], the solubility in data set [1] (Free base) is under 100 µg/mL; in data set [1] (HBr salt) it was over 10000 µg/mL; in data set [1] (HCl salt) it was over 10000 µg/mL; in data set [1] (Phosphoric acid salt), under 200 µg/mL; in data set [1] (Sulfuric acid salt), over 2000 µg/mL; in data set [1] (Trifluoroacetic acid salt) it was under 200 µg/mL. Also, the results for the solubility in data set [1] (acetic acid salt), in data set [1] (camphorsulfonic acid salt) and in data set [1] (formic acid salt) were under 500 µg/mL, under 200 µg/mL and under 500 µg/mL, respectively. The inhibition at 1 µM in data set [2] was at least 50%.

As for `NC(=O)c1c(Nc2ccc3[nH]ncc3c2)n[nH]c1NCc1ccc(O)cc1` [Compound 9, 3-((1H-indazol-5-yl)amino)-5-((4-hydroxybenzyl)amino)-3H-pyrazole-4-carboxamide], the solubility in data set [1] (Free base) was under 40 µg/mL; in data set [1] (HCl salt), under 100 µg/mL. In data set [2], the inhibition at 1 µM is at least 50%.

`NC(=O)C1=C(NCc2ccc(O)cc2)N=NC1Nc1ccc(N2CCOCC2)nc1` (stereo not drawn) [Compound 5, 5-((4-hydroxybenzyl)amino)-3-((6-morpholinopyridin-3-yl)amino)-3H-pyrazole-4-carboxamide]: the solubility in data set [1] (Free base) is under 100 µg/mL; in data set [1] (HCl salt) it was over 2000 µg/mL; in data set [1] (Methane sulfonic acid salt) it was over 10000 µg/mL; in data set [1] (Phosphoric acid salt) it was over 100 µg/mL; in data set [1] (Sulfuric acid salt), over 10 µg/mL; in data set [1] (Trifluoroacetic acid salt), over 1000 µg/mL. Moreover, in data set [2], the inhibition at 1 µM is at least 50%.

Take `NC(=O)C1=C(NCc2ccc(O)cc2)N=NC1Nc1ccc(-n2ccnc2)cc1` (stereo not drawn) [Compound 8, 3-((4-(1H-imidazol-1-yl)phenyl)amino)-5-((4-hydroxybenzyl)amino)-3H-pyrazole-4-carboxamide]: the solubility is under 40 µg/mL in data set [1] (Free base), over 500 µg/mL in data set [1] (HCl salt) and over 1000 µg/mL in data set [1] (Phosphoric acid salt). Besides, the inhibition at 1 µM in data set [2] was at least 50%.

For `NC(=O)C1=C(NCc2ccc(O)cc2)N=NC1Nc1cccc(Cl)c1` (stereo not drawn) [Compound 1, 3-((3-chlorophenyl)amino)-5-((4-hydroxybenzyl)amino)-3H-pyrazole-4-carboxamide], the solubility is under 40 µg/mL in data set [1] (Free base) and over 63 µg/mL in data set [1] (HCl salt). The same compound had an inhibition at 1 µM in data set [2] of at least 50%.

Regarding `NC(=O)C1=C(NCc2ccc(O)cc2)N=NC1Nc1ccc(CN2CCOCC2)cc1` (stereo not drawn) [Compound 3, 5-((4-hydroxybenzyl)amino)-3-((4-(morpholinomethyl)phenyl)amino)-3H-pyrazole-4-carboxamide], the solubility in data set [1] (Free base) is under 40 µg/mL; in data set [1] (HCl salt), over 500 µg/mL. The same compound displayed an inhibition at 1 µM in data set [2] of at least 50%.
